Measurements from patent publication US10786690B2, “Amide derivatives of polycaffeoylquinic acids, process for producing same and uses thereof” (TEMISIS, priority 2016, dated 2020).

Columns and labels:
[1] = system: Normal Human Epidermal Keratinocytes (NHEKs); test: Microscopic observation of NHEK cell survival 48 h after inflammatory treatment; type: cell-based; details: for Result at 48 h: cell survival: NHEK cultures 48 h after inflammatory treatment (10 ng/mL PMA + 2 μM calcium ionophore A23187), microscopic observation; for effect on cell survival / cellular protection against inflammation: NHEK cultures 48 h after inflammatory treatment, summary in words
Protocol: The cells, treated and not treated by the compounds to be tested, were observed under an optical microscope 48 h after the following inflammatory treatment: 10 ng/mL PMA/H2O+2 μM calcium ionophore A23187/DMSO.
NHEKs were brought into contact or not with the compounds to be tested. After 2 h, the cells underwent or not an inflammation treatment (10 ng/mL PMA/H2O+2 μM calcium ionophore A23187/DMSO).
The cells were observed under an optical microscope 48 h after the inflammatory treatment.

[2] = system: PGE2; test: PGE2 production by NHEKs in the inflammatory state (PMA), ELISA; type: cell-based, human; details: PMA 10 ng/ml 24 h, compounds 50 μM, indomethacin 10 μg/ml, relative to PMA induced control (100%)
Protocol: (§1) The study was carried out on Normal Human Epidermal Keratinocytes (NHEKs) (Lonza, CC-2507, origin: foreskin) in monolayer culture in Epilife medium (Invitrogen, M-EPI-500-A) containing the components of the Human Keratinocyte Growth Supplement (HKGS) mixture (Invitrogen, S-001-K) added separately, except hydrocortisone having anti-inflammatory properties.
For the quantification of IL-8 and PGE2, the inflammatory state of the NHEKs in culture was induced by treatment with PMA (phorbol myristate acetate/10 ng/ml/H2O) for 24 h. Induction of IL-6 was achieved by treatment with PMA (10 ng/ml/H2O) combined with calcium ionophore A23187 (2 μM/DMSO) in medium containing calcium at a concentration of 0.8 mM. TNF-α secretion was induced by a combination of PMA (10 ng/ml/H2O) and calcium ionophore A23187 (2 μM/DMSO) applied for 24 h (TNF-α) in medium containing 0.06 mM calcium. The reference molecules used are dexamethasone (10 μM/H2O) and indomethacin (10 μg/ml/ethanol).
(§2) The effect of the compounds was studied by applying them to the keratinocyte culture medium 2 h prior to induction of the inflammatory state as well as during induction (2 h for LTB4, 24 h for IL-8, PGE2, IL-6 and TNF-α).
(§3) Each condition was carried out in triplicate cultures and the supernatants were recovered at the end of the various treatments.
(§4) Quantification of the various inflammatory mediators was carried out with specific kits, based on a standard curve, according to the instructions provided by the kits' suppliers, R&D Systems and Cayman Chemical.
(§5) Before induction of the inflammatory state, the NHEKs were treated with the compounds and reference molecules for 2 h. The inflammatory state was then induced according to the conditions described in the methodology section, the culture supernatants were collected, and the various inflammatory mediators were quantified by the ELISA technique.
The effect of the compounds on PGE2 production is presented in FIG. 5 and is expressed as a percentage of the PMA treatment set at 100%.

[3] = system: LTB4; test: LTB4 production by NHEKs in the inflammatory state (arachidonic acid + calcium ionophore), ELISA; type: cell-based, human; details: arachidonic acid 1 μM + calcium ionophore A23187 2 h, compounds 50 μM, NDGA 2 μM, relative to induced control
Protocol: as §1
The induction of LTB4 production having a very fast kinetics, the scheme was adapted. In this case, the inflammatory state was induced for 2 h by applying arachidonic acid (a.a./1 μM/ethanol) combined with calcium ionophore A23187 (2 μM/DMSO). Nordihydroguaiaretic acid (NDGA) was used as reference molecule (2 μM/ethanol).
as §2, §3, §4, §5
The effects of the compounds on LTB4 production are shown in FIG. 8 and are expressed as a percentage of the treatment with arachidonic acid (a.a.) combined with calcium ionophore A23187 set at 100%.

[4] = system: IL-8; test: IL-8 production by NHEKs in the inflammatory state (PMA), ELISA; type: cell-based, human; details: PMA 10 ng/ml 24 h, compounds 50 μM, dexamethasone 10 μM, relative to PMA induced control (100%)
Protocol: as §1
(§6) For the quantification of IL-8 and PGE2, the inflammatory state of the NHEKs in culture was induced by treatment with PMA (phorbol myristate acetate/10 ng/ml/H2O) for 24 h. Induction of IL-6 was achieved by treatment with PMA (10 ng/ml/H2O) combined with calcium ionophore A23187 (2 μM/DMSO) in medium containing calcium at a concentration of 0.8 mM. […]
as §4
as §5, with “technique. […]” for “technique.”

[5] = system: IL-6; test: IL-6 production by NHEKs in the inflammatory state (PMA + calcium ionophore, 0.8 mM Ca2+), ELISA; type: cell-based, human; details: PMA + calcium ionophore A23187, 0.8 mM Ca2+, compounds 50 μM, dexamethasone 10 μM, relative to induced control
Protocol: as §1
For the quantification of IL-8 and PGE2, the inflammatory state of the NHEKs in culture was induced by treatment with PMA (phorbol myristate acetate/10 ng/ml/H2O) for 24 h. […]
as §4, §5
The effect of the compounds on IL-6 production by NHEKs in the inflammatory state is shown in FIG. 6 and is expressed as a percentage of the treatment with PMA combined with calcium ionophore A23187 (under high-calcium conditions: 0.8 mM Ca2+).

[6] = system: TNF-α; test: TNF-α production by NHEKs in the inflammatory state (PMA + calcium ionophore, 0.06 mM Ca2+), ELISA; type: cell-based, human; details: PMA + calcium ionophore A23187 24 h, compounds 50 μM, dexamethasone 10 μM, relative to induced control
Protocol: as §1, §6, §4
as §5, with “technique. […]” for “technique.”

Row | Structure (SMILES) | Result at 48 h: cell survival [1] | effect on cell survival / cellular protection against inflammation [1] | PGE2 production [2] | LTB4 production [3] | IL-8 production [4] | IL-6 production [5] | TNF-α production [6]
1 | O=C(/C=C/c1ccc(O)c(O)c1)O[C@@H]1C[C@](O)(C(=O)O)C[C@@H](OC(=O)/C=C/c2ccc(O)c(O)c2)[C@H]1O [PAT965, 3,5-O-Dicaffeoylquinic] | 10% cell survival | little or no effect on cell survival |  |  |  |  | 
2 | COc1ccc2c(c1)c(CC(=O)O)c(C)n2C(=O)c1ccc(Cl)cc1 [indomethacin, reference compound] |  |  | reduces this PGE2 production in the culture supernatants to an almost undetectable level |  |  |  | 
3 | C[C@@H]1C[C@H]2[C@@H]3CCC4=CC(=O)C=C[C@]4(C)[C@@]3(F)[C@@H](O)C[C@]2(C)[C@@]1(O)C(=O)CO [dexamethasone] | 10% cell survival |  |  |  |  |  | 
4 | O=C(/C=C/c1ccc(O)c(O)c1)O[C@@H]1[C@H](O)C[C@@](O)(C(=O)O)C[C@H]1OC(=O)/C=C/c1ccc(O)c(O)c1 [PAT964, 3,4-O-Dicaffeoylquinic] | 10% cell survival | little or no effect on cell survival |  |  |  |  | 
5 | O=C(/C=C/c1ccc(O)c(O)c1)O[C@H]1[C@H](O)C[C@](O)(C(=O)O)C[C@H]1OC(=O)/C=C/c1ccc(O)c(O)c1 [PAT967, 4,5-O-Dicaffeoylquinic] | 10% cell survival | little or no effect on cell survival | very highly significantly decrease |  |  |  | 
6 | CCCCNC(=O)[C@]1(O)C[C@@H](OC(=O)/C=C/c2ccc(O)c(O)c2)[C@@H](O)[C@H](OC(=O)/C=C/c2ccc(O)c(O)c2)C1 [PAT1658, (2E,2′E)-((1R,2S,3R,5S)-5-(butylcarbamoyl)-2,5-dihydroxycyclohexane-1,3-diyl) bis(3-(3,4-dihydroxyphenyl)acrylate)] | 80% cell survival | strong cellular protection against inflammation | very highly significantly decrease | block/decrease, in a very highly significant manner |  |  | 
7 | CCCCCCCCCCCCNC(=O)[C@]1(O)C[C@@H](OC(=O)/C=C/c2ccc(O)c(O)c2)[C@@H](O)[C@H](OC(=O)/C=C/c2ccc(O)c(O)c2)C1 [PAT1648, (2E,2′E)-((1R,2S,3R,5S)-5-(dodecylcarbamoyl)-2,5-dihydroxycyclohexane-1,3-diyl) bis(3-(3,4-dihydroxyphenyl) acrylate)] | Confluent culture: 100% | strong cellular protection against inflammation | very highly significantly decrease | block/decrease, in a very highly significant manner | inhibit/reduce IL-8 production to the baseline level | largest decreases and are more effective than dexamethasone itself | most marked effects and are more effective than dexamethasone itself
8 | CC(Cc1ccc(O)c(O)c1)C(C)Cc1ccc(O)c(O)c1 (stereo not drawn) [NDGA, Nordihydroguaiaretic acid, reference compound] |  |  |  | very highly significantly inhibits |  |  | 
